Measured values taken from patent publication US9505739B2, “Spiropyrrolidine beta-secretase inhibitors for the treatment of alzheimer's disease” (Merck Sharp & Dohme Corp., priority 2009, dated 2016).

Target: BACE 1 (Homo sapiens (Human), UniProt P56817)
Assay: ECL assay: homogeneous end point electrochemiluminescence assay of beta-secretase inhibition with biotinylated BACE substrate
Type: biochemical
Conditions: soluble human BACE 1, pH 6.5, rt
Protocol: Enzyme inhibition is determined as follows.
ECL Assay: A homogeneous end point electrochemiluminescence (ECL) assay is performed using a biotinylated BACE substrate. The Km of the substrate is approximated at 50 μM. A typical reaction contains approximately 0.6 nM enzyme, 0.25 μM of the substrate, and buffer (50 mM Pipes, pH 6.5, 0.1 mg/ml BSA, 0.2% CHAPS, 15 mM EDTA and 1 mM deferoxamine) in a total reaction volume of 100 μl. The reaction proceeds for 1-2 hrs and is then stopped by the addition of 150 μL of a quench cocktail solution (25 μl M Tris-HCl, pH 8.0, 50 μl INC buffer (2% BSA, 0.2% Tween-20 and 0.05% sodium azide diluted in Phosphate buffered saline (PBS) plus 75 μL PBS), containing Streptavidin coated magnetic beads and ruthenylated antibody which specifically recognizes the C-terminal residue of the product. The samples are subjected to M-384 (Igen Inc., Gaithersburg, Md.) analysis. Under these conditions, less than 10% of substrate is processed by BACE 1. The enzyme used in these studies is soluble (transmembrane domain and cytoplasmic extension excluded) human protein produced in a baculovirus expression system. To measure the inhibitory potency for compounds, 10 concentrations of inhibitors are prepared starting from 200 μM with three fold series dilution. Solutions of the inhibitor in DMSO are included in the reaction mixture (final DMSO concentration is 10%). […]

BACE 1, sequence (P56817 46-457): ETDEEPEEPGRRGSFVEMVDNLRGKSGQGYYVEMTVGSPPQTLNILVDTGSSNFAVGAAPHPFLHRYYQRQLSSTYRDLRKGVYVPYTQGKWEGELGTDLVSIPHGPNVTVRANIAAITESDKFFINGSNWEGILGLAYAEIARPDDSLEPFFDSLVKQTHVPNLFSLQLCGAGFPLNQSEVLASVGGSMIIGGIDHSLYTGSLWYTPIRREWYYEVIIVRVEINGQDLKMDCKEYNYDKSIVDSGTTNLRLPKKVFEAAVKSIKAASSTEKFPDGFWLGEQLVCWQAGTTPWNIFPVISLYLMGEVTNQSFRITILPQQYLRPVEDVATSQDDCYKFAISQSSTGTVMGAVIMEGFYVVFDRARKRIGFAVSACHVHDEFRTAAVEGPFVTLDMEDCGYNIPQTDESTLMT

IC50: 450 nM
SMILES: Cc1cccc(C2CC(c3ccccc3)CCN2C(=O)[C@@H]2CNC[C@]23CCCc2nc(Cl)ccc23)c1 (stereo partly drawn) [Example 100, [(3R,4S)-2′-chloro-7′,8′-dihydro-6′H-spiro [pyrrolidine-3,5′-quinolin]-4-yl][2-(3-methylphenyl)-4-phenylpiperidin-1-yl] methanone]
